# Values quoted from earlier work, collected in US20200276209A1, “METHODS OF TREATING EPILEPSY OR STATUS EPILEPTICUS” (Sage Therapeutics, Inc., priority 2017, published 2020).
# Read-outs that look alike come from different tables or passages of the source.
# System: status epilepticus
SMILES,patients who did not respond to first line treatment (intravenous (IV) treatment),patients who did not respond to first line treatment (intramuscular (IM) treatment)
O=C1Nc2ccc(Cl)cc2C(c2ccccc2Cl)=NC1O (centres unmarked) [lorazepam],36.6%,
Cc1ncc2n1-c1ccc(Cl)cc1C(c1ccccc1F)=NC2 [midazolam],,26.6%
